Source: PubChem BioAssay (NCI)
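Briefly, cells in 96-well plates were exposed to five compound concentrations for 48 h, and endpoints were estimated by linear interpolation. Abbreviation: GI50, concentration required for 50% inhibition of growth. At the TGI there is no net growth.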

How the values were obtained:
Test in all cases: NCI anticancer screen, dose series, 48 h
[1] = tested on: COLO 205 colon
[2] = tested on: IGROV1 ovarian
[3] = tested on: LOX IMVI melanoma
[4] = tested on: M14 melanoma
[5] = tested on: NCI-H522 lung
[6] = tested on: RPMI-8226 leukemia
[7] = tested on: RXF 393 renal
[8] = tested on: SF-539 CNS
[9] = tested on: SK-MEL-2 melanoma
[10] = tested on: SNB-19 CNS

`CCC(=C(c1ccc(OCCCN(C)C)cc1)c1ccc(OCCCN(C)C)cc1)c1ccc(Cl)cc1` gave a GI50 [1] of 0.399 µM, a TGI [1] of 1.04 µM and a GI50 [2] of 429 nM. It also gave a TGI [2] of 1.15 µM, a GI50 [3] of 0.287 µM and a TGI [3] of 0.541 µM. It also gave a GI50 [4] of 0.302 µM, a TGI [4] of 0.577 µM and a GI50 [5] of 0.48 µM. The TGI [5] was 1.69 µM, the GI50 [6] was 0.366 µM and the TGI [6] was 0.871 µM. It also gave a GI50 [7] of 0.977 µM, a TGI [7] of 3.4 µM and a GI50 [8] of 0.301 µM. The TGI [8] was 0.604 µM, the GI50 [9] was 2.63 µM and the TGI [9] was 5.37 µM. The GI50 [10] was 0.921 µM and the TGI [10] was 3.05 µM.
Compound `Cc1cc(N(CCC#N)CCC#N)ccc1/C=C1N=C(/C=C/c2ccccc2)OC(=O)N\1` has a TGI [1] greater than 100 µM, a TGI [2] greater than 100 µM and a TGI [3] greater than 100 µM. For the same compound, the TGI [4] was greater than 100 µM, the TGI [5] was greater than 100 µM and the TGI [6] was greater than 100 µM. For the same compound, the TGI [7] was greater than 100 µM, the TGI [8] was greater than 100 µM and the TGI [9] was greater than 100 µM. It also gave a TGI [10] greater than 100 µM.
`C[C@H](Cn1ncnn1)Nc1ncc2cc(Oc3ccc(F)cc3F)c(=O)n(C)c2n1` showed a GI50 [1] greater than 25 µM, a TGI [1] greater than 25 µM and a GI50 [2] greater than 25000 nM. For the same compound, the TGI [2] was greater than 25 µM, the GI50 [3] was greater than 25 µM and the TGI [3] was greater than 25 µM. For the same compound, the GI50 [4] was greater than 25 µM, the TGI [4] was greater than 25 µM and the GI50 [5] was greater than 25 µM. For the same compound, the TGI [5] was greater than 25 µM, the GI50 [6] was greater than 25 µM and the TGI [6] was greater than 25 µM. The GI50 [7] was greater than 25 µM, the TGI [7] was greater than 25 µM and the GI50 [8] was greater than 25 µM. For the same compound, the TGI [8] was greater than 25 µM, the GI50 [9] was greater than 25 µM and the TGI [9] was greater than 25 µM. For the same compound, the GI50 [10] was greater than 25 µM and the TGI [10] was greater than 25 µM.
Work on `CN(C)Cc1c[nH]c2c(NCCN)c3c(c(NCCN)c12)C(=O)c1ccccc1C3=O` yielded a GI50 [1] of 7.36 µM, a GI50 [2] of 2100 nM and a TGI [2] of 10.5 µM. It also gave a GI50 [3] of 0.556 µM, a TGI [3] of 1.88 µM and a GI50 [4] of 3.51 µM. It also gave a TGI [4] of 16.9 µM, a GI50 [5] of 1.13 µM and a TGI [5] of 3.26 µM. It also gave a GI50 [6] of 1.43 µM, a TGI [6] of 6.52 µM and a GI50 [7] of 6.32 µM. It also gave a TGI [7] of 18.1 µM, a GI50 [8] of 2.83 µM and a TGI [8] of 7.47 µM. For the same compound, the GI50 [9] was 2.41 µM, the TGI [9] was 8.27 µM and the GI50 [10] was 6.52 µM. For the same compound, the TGI [10] was 23 µM.
Compound `c1ccc2nc3c(cc4ccccn43)nc2c1` has a GI50 [1] of 64 µM, a TGI [1] greater than 100 µM and a GI50 [2] of 1810 nM. It also gave a TGI [2] of 26.1 µM, a GI50 [3] of 47.1 µM and a TGI [3] greater than 100 µM. The GI50 [4] was greater than 100 µM, the TGI [4] was greater than 100 µM and the GI50 [5] was 21.5 µM. For the same compound, the TGI [5] was greater than 100 µM, the GI50 [6] was greater than 100 µM and the TGI [6] was greater than 100 µM. It also gave a GI50 [7] of 30.1 µM, a TGI [7] greater than 100 µM and a GI50 [8] of 36.7 µM. It also gave a TGI [8] greater than 100 µM, a GI50 [9] of 43.8 µM and a TGI [9] greater than 100 µM. For the same compound, the GI50 [10] was greater than 100 µM and the TGI [10] was greater than 100 µM.
Compound `COc1ccc(CC(C)C(C)Cc2ccc(OC)c(OC)c2)cc1OC` (centres undefined) has a GI50 [1] greater than 1400 µM, a TGI [1] greater than 1400 µM and a GI50 [2] of 800000 nM. It also gave a TGI [2] greater than 1400 µM, a GI50 [3] greater than 1400 µM and a TGI [3] greater than 1400 µM. It also gave a GI50 [4] greater than 1400 µM, a TGI [4] greater than 1400 µM and a GI50 [5] of 79.7 µM. The TGI [5] was greater than 1400 µM, the GI50 [6] was 96.7 µM and the TGI [6] was greater than 1400 µM. The GI50 [7] was 255 µM, the TGI [7] was 950 µM and the GI50 [8] was greater than 1400 µM. The TGI [8] was greater than 1400 µM, the GI50 [9] was greater than 1400 µM and the TGI [9] was greater than 1400 µM. It also gave a GI50 [10] greater than 1400 µM and a TGI [10] greater than 1400 µM.
`NC(=O)c1cccc(Nc2nccc(Nc3cccc(F)c3)n2)c1` was tested, and the GI50 [1] was 6.73 µM, the TGI [1] was greater than 17.9 µM and the GI50 [2] was 6210 nM. The TGI [2] was greater than 21.1 µM, the GI50 [3] was 7.66 µM and the TGI [3] was greater than 25 µM. For the same compound, the GI50 [4] was 8.92 µM, the TGI [4] was greater than 25 µM and the GI50 [5] was 5.82 µM. The TGI [5] was greater than 23.8 µM, the GI50 [6] was 11.4 µM and the TGI [6] was greater than 25 µM. The GI50 [7] was 3.72 µM, the TGI [7] was 14.6 µM and the GI50 [8] was 11.3 µM. It also gave a TGI [8] greater than 25 µM, a GI50 [9] of 7.37 µM and a TGI [9] of 24.4 µM. For the same compound, the GI50 [10] was 18.6 µM and the TGI [10] was greater than 25 µM.
`NC(N)=NS(=O)(=O)c1ccc(NC(=O)c2cccc3c(Nc4ccc(S(N)(=O)=O)cc4)c4ccccc4nc23)cc1` was tested, and the TGI [1] was greater than 100 µM, the TGI [2] was greater than 100 µM and the TGI [3] was greater than 100 µM. It also gave a TGI [4] greater than 100 µM, a TGI [5] greater than 100 µM and a TGI [6] greater than 100 µM. It also gave a TGI [7] greater than 100 µM, a TGI [8] greater than 100 µM and a TGI [9] greater than 100 µM. For the same compound, the TGI [10] was greater than 100 µM.
For `COc1ccc(/C=C2/CCc3cc4ccc(OC)cc4[o+]c32)c(O)c1`, the GI50 [1] was 2.59 µM, the TGI [1] was 10.7 µM and the GI50 [2] was 2710 nM. It also gave a TGI [2] of 27.6 µM, a GI50 [3] of 2.12 µM and a TGI [3] of 5.02 µM. For the same compound, the GI50 [4] was 3.1 µM, the TGI [4] was 14.6 µM and the GI50 [5] was 12.7 µM. It also gave a TGI [5] of 30.5 µM, a GI50 [6] of 3.17 µM and a TGI [6] of 12.9 µM. It also gave a GI50 [7] of 7.08 µM, a TGI [7] of 24.6 µM and a GI50 [8] of 15.1 µM. The TGI [8] was 31.8 µM, the GI50 [9] was 11.8 µM and the TGI [9] was 25.3 µM. The GI50 [10] was 8.48 µM and the TGI [10] was 25.6 µM.
`CCCCCCCCCCN=C(c1ccc(N(C)C)cc1)c1ccc(N(C)C)cc1` was tested, and the GI50 [1] was 0.933 µM, the TGI [1] was 15.7 µM and the GI50 [2] was 917 nM. It also gave a TGI [2] greater than 100 µM, a GI50 [3] of 0.601 µM and a TGI [3] greater than 96.1 µM. It also gave a GI50 [4] of 0.328 µM, a TGI [4] of 26.4 µM and a GI50 [5] of 0.352 µM. The TGI [5] was 5.94 µM, the GI50 [6] was 0.673 µM and the TGI [6] was 16.3 µM. The GI50 [7] was 1.66 µM, the TGI [7] was 9.87 µM and the GI50 [8] was 0.832 µM. For the same compound, the TGI [8] was 5.47 µM, the GI50 [9] was 0.492 µM and the TGI [9] was 33.2 µM. It also gave a GI50 [10] of 1.06 µM and a TGI [10] greater than 76 µM.
With `O=C(O)CCC(NC(=S)S)C(=O)O.[Na+].[Zn+2]` (centres undefined) the GI50 [1] was greater than 50 µM, the TGI [1] was greater than 50 µM and the GI50 [2] was greater than 50000 nM. It also gave a TGI [2] greater than 50 µM, a GI50 [3] greater than 50 µM and a TGI [3] greater than 50 µM. The GI50 [4] was greater than 50 µM, the TGI [4] was greater than 50 µM and the GI50 [5] was greater than 50 µM. The TGI [5] was greater than 50 µM, the GI50 [6] was greater than 50 µM and the TGI [6] was greater than 50 µM. The GI50 [7] was greater than 50 µM, the TGI [7] was greater than 50 µM and the GI50 [8] was greater than 50 µM. The TGI [8] was greater than 50 µM, the GI50 [9] was greater than 50 µM and the TGI [9] was greater than 50 µM. The GI50 [10] was greater than 50 µM and the TGI [10] was greater than 50 µM.
`Cc1ccccc1Nc1nc2c(s1)C(=O)c1ccccc1C2=O` showed a TGI [1] of 34.7 µM, a TGI [2] of 26.4 µM and a TGI [3] of 5.27 µM. It also gave a TGI [4] of 12.1 µM, a TGI [5] of 7.52 µM and a TGI [6] of 18 µM. The TGI [7] was 19.3 µM, the TGI [8] was 12.7 µM and the TGI [9] was 31.5 µM. The TGI [10] was 13.2 µM.
Compound `Cc1cc2c(Br)cc(Br)c(O)c2nc1C(=O)c1ccccc1` has a TGI [1] of 55.7 µM, a TGI [2] greater than 100 µM and a TGI [3] greater than 86 µM. It also gave a TGI [4] greater than 60.2 µM, a TGI [5] greater than 100 µM and a TGI [6] greater than 100 µM. It also gave a TGI [7] greater than 83.6 µM, a TGI [8] of 97 µM and a TGI [9] of 97.2 µM. It also gave a TGI [10] greater than 100 µM.
For `Cc1nnc(N/N=C(/C(=O)C(C#N)c2ccccc2)C(C#N)c2ccccc2)n1N` (centres undefined), the TGI [1] was 14 µM, the TGI [2] was greater than 95.9 µM and the TGI [3] was 5.65 µM. It also gave a TGI [4] of 31.2 µM, a TGI [5] of 56.1 µM and a TGI [6] of 85.8 µM. For the same compound, the TGI [7] was 24.1 µM, the TGI [8] was greater than 65.2 µM and the TGI [9] was 12.5 µM. For the same compound, the TGI [10] was greater than 100 µM.
`COc1ccccc1-c1cc(=O)c2ccc(C)nc2[nH]1` gave a TGI [1] greater than 100 µM, a TGI [2] greater than 100 µM and a TGI [3] greater than 100 µM. For the same compound, the TGI [4] was greater than 100 µM, the TGI [5] was greater than 100 µM and the TGI [6] was greater than 100 µM. For the same compound, the TGI [7] was greater than 100 µM, the TGI [8] was greater than 100 µM and the TGI [9] was greater than 100 µM. The TGI [10] was greater than 100 µM.
